Reference: US20260042764A1, “COMPOSITIONS AND METHODS FOR INHIBITION OF KRAS” (TheRas, Inc., priority 2022, published 2026)
Where two headings read alike, the source gives them in different places.

Key:
H1573 cells (KRAS G12A) [1] = assay: Cell-based pERK HTRF assay in H1573 cells (Biological Example 5)
Description: (§1) Biological Example 5: Cell-based PERK HTRF assay in AsPC-1, SW1900, HPAC, Capan-2, RKN, H358, HCT116, KP-2, H1573, A549, MKN1, and HT1080 cells
(§2) The inhibition of ERK phosphorylation, as measured using the HTRF Advanced Phospho-ERK 1/2 (Thr202/Tyr204) Detection Assay kit (Perkin Elmer), was used to determine the effectiveness of test compounds in disrupting KRAS-driven protein/effector signaling in cells.
(§3) On day 1, cells were seeded into 96-well plates at 2.5×10^4 cells/well in 100 μL of complete growth media supplemented with 10% fetal bovine serum (FBS) and incubated at 37° C., in the presence of 5% CO2.
(§4) On day 2, cells were treated with compounds diluted in DMSO at 0.25% final DMSO concentration. Compounds were dosed in a 9-point concentration curve with three-fold dilution between concentrations. Cells were incubated in the presence of compound for two hours at 37° C. Following this treatment period, cells were harvested by aspirating the media, adding 40 μL of kit-supplied 1x lysis buffer per well, and shaking for 30 minutes at 250 rpm at room temperature.
(§5) Following cell lysis, samples were homogenized by pipetting up and down twenty times and 16 μL of cell lysate per well was transferred from the 96-well cell culture plate to two wells of a 384-well detection plate. A complete detection buffer was prepared by diluting D2 and Eu Cryptate antibodies 1:20 in kit-provided detection solution, 4 μL of complete detection buffer was then added to each well with lysate. Plates were incubated with gentle rocking for 24 hours at 4° C.
(§6) Following this incubation period, plates were centrifuged at 500×g for one minute and analyzed on a CLARIOstar plate reader. Data was imported into Microsoft Excel and the signal from the 665 nm channel was divided by the signal from the 620 nm channel. % pERK was calculated as: […]
(§7) Data was imported to the Prism software package (Graphpad) and EC50 values were calculated using the log (inhibitor) vs, response—variable slopc (Four parameters) model.

[2] = test system: Capan-2 cells (KRAS G12V); assay: Cell-based pERK HTRF assay in Capan-2 cells (Biological Example 5)
Description: as §1, §2, §3, §4, §5, §6, §7

A549 cells (KRAS G12S) [3] = assay: Cell-based pERK HTRF assay in A549 cells (Biological Example 5)
Description: as §1, §2, §3, §4, §5, §6, §7

HCT116 cells (KRAS G13D) [4] = assay: 3D Cell viability assay in HCT116 cells (Biological Example 6); format: cell-based; settings: HCT116 (KRAS G13D) spheroids, 72 hours
How it was run: (§8)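 Tumour spheroids, grown 48 h from 1000 seeded cells in ultra-low attachment wells, receive compound at nine three-fold-spaced concentrations (final DMSO 0.25%) for 72 h at 37 °C, 5% CO2. Viability is measured by luminescence after CTG 3D lysis.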

SW1900 cells (KRAS G12D) [5] = assay: Cell-based pERK HTRF assay in SW1900 cells (Biological Example 5)
Description: as §1, §2, §3, §4, §5, §6, §7

H1573 cells (KRAS G12A) [6] = assay: 3D Cell viability assay in H1573 cells (Biological Example 6); format: cell-based; settings: H1573 (KRAS G12A) spheroids, 72 hours
Description: (§9) Biological Example 6: 3D Cell viability assay in AsPC-1, SW1900, HPAC, Capan-2, RKN, H358, HCT116, KP-2, H1573, A549, MKN1, and HT1080 cells
(§10) The inhibition of cellular viability as a result of test compound treatment in a spheroid assay was measured using the CellTiter-Glow 3D Cell Viability Assay (Promega).
(§11) On Day 1, 1000 cells per well were seeded in 150 μL of complete growth media supplemented with 10% fetal bovine serum (FBS) and incubated at 37° C., in the presence of 5% CO2 in 96-well ultra-low attachment microplates (Corning) for 48 hours undisturbed to allow spheroids to form.
(§12) Following spheroid formation, cells were treated with compounds diluted in DMSO at 0.25% final DMSO concentration. Compounds were dosed in a 9-point concentration curve with three-fold dilution between concentrations. Cells were incubated in the presence of compound for 72 hours at 37° C., in the presence of 5% CO2.
(§13) Following this incubation period, the kit-provided CTG reagent was allowed to equilibrate for 30 minutes at room temperature, 150 μL of equilibrated CTG reagent was added to each well, and the plate was sealed before shaking at 250 rpm for 10 minutes at room temperature to lyse the cells, 150 μL of lysate per well was transferred to a 96-well plate and luminescence was read on a CLARIOstar plate reader.
(§14) Data was imported into the Prism software package (Graphpad) and EC50 values were calculated using the log (inhibitor) vs, response—variable slope (Four parameters) model.

RKN cells (KRAS G12V) = assay: 3D Cell viability assay in RKN cells (Biological Example 6); format: cell-based; settings: RKN (KRAS G12V) spheroids, 72 hours
Description: as §9, §10, §11, §12, §13, §14

A549 cells (KRAS G12S) [7] = assay: 3D Cell viability assay in A549 cells (Biological Example 6); format: cell-based; settings: A549 (KRAS G12S) spheroids, 72 hours
Description: as §9, §10, §11, §12, §13, §14

HPAC cells (KRAS G12D) = assay: Cell-based pERK HTRF assay in HPAC cells (Biological Example 5)
Description: as §1, §2, §3, §4, §5, §6, §7

HCT116 cells (KRAS G13D) [8] = assay: Cell-based pERK HTRF assay in HCT116 cells (Biological Example 5)
Description: as §1, §2, §3, §4, §5, §6, §7

[9] = test system: MKN1 cells (KRAS amplification); assay: Cell-based pERK HTRF assay in MKN1 cells (Biological Example 5)
Description: as §1, §2, §3, §4, §5, §6, §7

HT1080 cells (NRAS) [10] = assay: Cell-based pERK HTRF assay in HT1080 cells (Biological Example 5)
Description: as §1, §2, §3, §4, §5, §6, §7

HT1080 cells (NRAS) [11] = assay: 3D Cell viability assay in HT1080 cells (Biological Example 6); format: cell-based; settings: HT1080 (NRAS) spheroids, 72 hours
How it was run: as §8

[12] = test system: Capan-2 cells (KRAS G12V); assay: 3D Cell viability assay in Capan-2 cells (Biological Example 6); format: cell-based; settings: Capan-2 (KRAS G12V) spheroids, 72 hours
Description: as §9, §10, §11, §12, §13, §14

[13] = test system: MKN1 cells (KRAS amplification); assay: 3D Cell viability assay in MKN1 cells (Biological Example 6); format: cell-based; settings: MKN (MKN1, KRAS amplification) spheroids, 72 hours
Description: as §9, §10, §11, §12, §13, §14

SW1900 cells (KRAS G12D) [14] = assay: 3D Cell viability assay in SW1900 cells (Biological Example 6); format: cell-based; settings: Homo sapiens; SW1990 (text: SW1900, KRAS G12D) spheroids, 72 hours
How it was run: as §8

KP-2 cells (KRAS G12R) = assay: Cell-based pERK HTRF assay in KP-2 cells (Biological Example 5); settings: KP-2 (KRAS G12R) cells
Description: as §1, §2, §3, §4, §5, §6, §7

AsPC-1 cells (KRAS G12D) = assay: Cell-based pERK HTRF assay in AsPC-1 cells (Biological Example 5); settings: Homo sapiens, ASPC1, AsPC-1 (KRAS G12D) cells
Description: as §1, §2, §3, §4, §5, §6, §7

[15] = Homo sapiens, Capan-2, Capan-2 (KRAS G12V) cells
[16] = Homo sapiens, SW1990, SW1990 cells (text: SW1900, KRAS G12D)
[17] = Homo sapiens, MKN-1, MKN cells (MKN1, KRAS amplification)

IC50 (H1573 cells (KRAS G12A) [1]; Homo sapiens, NCI-H1573) | IC50 [2, 15] | IC50 (A549 cells (KRAS G12S) [3]; Homo sapiens) | IC50 (HCT116 cells (KRAS G13D) [4]; Homo sapiens, HCT-116) | IC50 (SW1900 cells (KRAS G12D) [14]) | IC50 (SW1900 cells (KRAS G12D) [5]; [16]) | IC50 (H1573 cells (KRAS G12A) [6]; Homo sapiens, NCI-H1573) | IC50 (A549 cells (KRAS G12S) [7]; Homo sapiens) | IC50 (HPAC cells (KRAS G12D); Homo sapiens, HPAC) | IC50 (HCT116 cells (KRAS G13D) [8]; Homo sapiens, HCT-116) | IC50 [9, 17] | IC50 (HT1080 cells (NRAS) [10]; Homo sapiens, HT-1080) | IC50 (HT1080 cells (NRAS) [11]; Homo sapiens, HT-1080) | IC50 ([13]; Homo sapiens, MKN-1) | Structure (SMILES) | IC50 (RKN cells (KRAS G12V)) | IC50 ([12]; Homo sapiens) | further results
– | – | – | – | – | – | – | – | – | – | – | – | – | – | CN(c1nc(OC[C@@]23CCCN2C[C@H](F)C3)nc2c(F)c(-c3ccc(F)c4sc(N)c(C#N)c34)c(C(F)(F)F)cc12)[C@H]1C[C@@H](O)C1 [Compound 19, 2-amino-7-fluoro-4-((S)-8-fluoro-2-(((2R,7aS)-2-fluorotetrahydro-1H-pyrrolizin-7a(5H)-yl)methoxy)-4-(((1s,3R)-3-hydroxycyclobutyl)(methyl)amino)-6-(trifluoromethyl)quinazolin-7-yl)benzo[b]thiophene-3-carbonitrile] | ≤ 100 nM | – | IC50 (H1573 cells (KRAS G12A) [1]): ≤ 100 nM; IC50 ([2]; Capan-2 (KRAS G12V) cells): ≤ 100 nM; IC50 (A549 cells (KRAS G12S) [3]): 100 to 1000 nM; IC50 (HCT116 cells (KRAS G13D) [4]): ≤ 100 nM; IC50 (SW1900 cells (KRAS G12D) [5]; SW1990 cells (text: SW1900, KRAS G12D)): ≤ 100 nM; IC50 (H1573 cells (KRAS G12A) [6]): ≤ 100 nM; IC50 (A549 cells (KRAS G12S) [7]): 100 to 1000 nM; IC50 (HPAC cells (KRAS G12D)): ≤ 100 nM; IC50 (HCT116 cells (KRAS G13D) [8]): ≤ 100 nM; IC50 ([9]; MKN cells (MKN1, KRAS amplification)): ≤ 100 nM; IC50 (HT1080 cells (NRAS) [10]): > 1000 nM; IC50 (HT1080 cells (NRAS) [11]): > 1000 nM; IC50 [12]: 100 to 1000 nM; IC50 [13]: ≤ 100 nM
≤ 100 nM | ≤ 100 nM | ≤ 100 nM | 100 to 1000 nM | 100 to 1000 nM | ≤ 100 nM | ≤ 100 nM | ≤ 100 nM | 100 to 1000 nM | ≤ 100 nM | ≤ 100 nM | > 1000 nM | > 1000 nM | – | CCC(=O)N1CC[C@@H](N(C)c2nc(OC[C@@]34CCCN3C[C@H](F)C4)nc3c(F)c(-c4ccc(F)c5sc(N)c(C#N)c45)c(C(F)(F)F)cc23)[C@H]1C [Compound 260] | ≤ 100 nM | ≤ 100 nM | –
≤ 100 nM | ≤ 100 nM | ≤ 100 nM | 100 to 1000 nM | ≤ 100 nM | ≤ 100 nM | ≤ 100 nM | ≤ 100 nM | ≤ 100 nM | ≤ 100 nM | ≤ 100 nM | > 1000 nM | > 1000 nM | ≤ 100 nM | CCN(c1nc(OC[C@@]23CCCN2C[C@H](F)C3)nc2c(F)c(-c3ccc(F)c4sc(N)c(C#N)c34)c(C(F)(F)F)cc12)[C@H]1CCN(C(C)=O)C1 [Compound 262] | ≤ 100 nM | ≤ 100 nM | IC50 (KP-2 cells (KRAS G12R)): ≤ 100 nM; IC50 (AsPC-1 cells (KRAS G12D)): 100 to 1000 nM
≤ 100 nM | ≤ 100 nM | ≤ 100 nM | 100 to 1000 nM | ≤ 100 nM | ≤ 100 nM | ≤ 100 nM | ≤ 100 nM | ≤ 100 nM | ≤ 100 nM | ≤ 100 nM | > 1000 nM | > 1000 nM | ≤ 100 nM | CCN(c1nc(OC[C@@]23CCCN2C[C@H](F)C3)nc2c(F)c(-c3ccc(F)c4sc(N)c(C#N)c34)c(Cl)cc12)[C@@H]1CCN(C(C)=O)[C@@H]1C [Compound 323] | – | ≤ 100 nM | –
